# How the values were obtained:
# [1] = Plasma clearance in C57/BL6 mouse at 10 mg/kg, po and 2 mg/kg, iv; assay type: ADME, organism-based
# [2] = Drug uptake in high sucrose/fat free diet fed C57/BL6 mouse liver at 100 mg/kg, po after 3 hrs; assay type: ADME, organism-based; design: dose 100 mg/kg, route oral; settings: read-out: Drug uptake
# [3] = Drug uptake in C57/BL6 mouse heart at 30 mg/kg, po after 6 hrs; assay type: ADME, organism-based; design: dose 30 mg/kg, route oral; settings: read-out: Drug uptake
# [4] = Drug uptake in C57/BL6 mouse kidney at 30 mg/kg, po after 2 hrs; assay type: ADME, organism-based; design: dose 30 mg/kg, route oral; settings: read-out: Drug uptake
# [5] = AUC in C57/BL6 mouse plasma at 10 mg/kg, po and 2 mg/kg, iv; assay type: ADME, organism-based
# [6] = Drug uptake in C57/BL6 mouse skin at 30 mg/kg, po after 24 hrs; assay type: ADME, organism-based, Zone of skin; design: dose 30 mg/kg, route oral; settings: read-out: Drug uptake
# Nucleic Acid = experiment: Ratio of drug uptake in high fat diet fed C57/BL6 mouse eDIO model whole blood to high sucrose/fat free diet fed C57/BL6 mouse plasma; assay type: ADME; settings: in vivo
# [7] = biological target: T1, Stearoyl-CoA desaturase 5 (Homo sapiens, UniProt Q86SK9); experiment: Inhibition of human SCD5
# T1 sequence (Q86SK9 whole entry): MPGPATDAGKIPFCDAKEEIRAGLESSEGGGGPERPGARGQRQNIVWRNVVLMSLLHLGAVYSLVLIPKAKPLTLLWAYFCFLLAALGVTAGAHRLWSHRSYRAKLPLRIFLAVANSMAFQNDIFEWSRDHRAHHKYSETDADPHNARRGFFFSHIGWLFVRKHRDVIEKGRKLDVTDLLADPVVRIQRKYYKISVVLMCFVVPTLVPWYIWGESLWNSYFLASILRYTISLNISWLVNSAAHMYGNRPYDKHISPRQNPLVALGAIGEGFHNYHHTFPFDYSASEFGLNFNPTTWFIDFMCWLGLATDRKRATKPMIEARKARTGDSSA
# [8] = Oral bioavailability in Sprague-Dawley rat plasma at 10 mg/kg; assay type: ADME, organism-based
# [9] = Drug uptake in C57/BL6 mouse heart at 30 mg/kg, po after 24 hrs; assay type: ADME, organism-based; design: dose 30 mg/kg, route oral; settings: read-out: Drug uptake
# [10] = Drug uptake in high sucrose/fat free diet fed C57/BL6 mouse liver at 10 mg/kg, po after 3 hrs; assay type: ADME, organism-based; design: dose 10 mg/kg, route oral; settings: read-out: Drug uptake
# [11] = Plasma concentration in C57/BL6 mouse at 30 mg/kg, po after 24 hrs; assay type: ADME, organism-based; design: dose 30 mg/kg, route oral
# [12] = Drug uptake in C57/BL6 mouse cerebellum at 30 mg/kg, po after 24 hrs; assay type: ADME, organism-based; design: dose 30 mg/kg, route oral; settings: read-out: Drug uptake
# [13] = Drug uptake in C57/BL6 mouse skin at 30 mg/kg, po after 6 hrs; assay type: ADME, organism-based, Zone of skin; design: dose 30 mg/kg, route oral; settings: read-out: Drug uptake
# [14] = Drug uptake in C57/BL6 mouse left epididymal fat at 30 mg/kg, po after 24 hrs; assay type: ADME, organism-based, Epididymal fat pad; design: dose 30 mg/kg, route oral; settings: male, read-out: Drug uptake
# Mus musculus [15] = experiment: Acute antidiabetic activity in high fat diet fed C57/BL6 mouse eDIO model assessed as increase in glucose clearance at 30 mg/kg, po administered 1 hr prior to glucose challenge by oGTT assay; assay type: functional
# Stearoyl-CoA desaturase = biological target: T2, Stearoyl-CoA desaturase (Homo sapiens, UniProt O00767); experiment: Inhibition of human SCD1 expressed in human HepG2 cells assessed as conversion of [14C]stearic acid to [14C]oleic acid; assay type: cell-based
# T2 sequence (O00767 whole entry): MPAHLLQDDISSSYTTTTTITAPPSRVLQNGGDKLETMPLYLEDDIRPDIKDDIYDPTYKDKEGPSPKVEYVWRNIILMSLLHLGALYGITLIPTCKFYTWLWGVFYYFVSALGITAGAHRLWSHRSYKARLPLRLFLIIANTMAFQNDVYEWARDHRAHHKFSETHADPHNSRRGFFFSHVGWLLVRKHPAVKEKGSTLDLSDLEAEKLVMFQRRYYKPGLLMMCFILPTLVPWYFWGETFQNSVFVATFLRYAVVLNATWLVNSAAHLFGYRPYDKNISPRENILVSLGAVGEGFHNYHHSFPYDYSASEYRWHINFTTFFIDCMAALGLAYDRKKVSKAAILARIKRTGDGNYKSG
# [16] = AUC in Sprague-Dawley rat plasma at 10 mg/kg, po and 2 mg/kg, iv; assay type: ADME, organism-based
# [17] = Drug uptake in high fat diet fed C57/BL6 mouse eDIO model whole blood at 100 mg/kg, po after 3 hrs; assay type: ADME, organism-based; design: dose 100 mg/kg, route oral; settings: read-out: Drug uptake
# Mus musculus [18] = experiment: Inhibition of SCD activity in high sucrose/fat free diet fed po dosed C57/BL6 mouse liver assessed as reduction in conversion of [14C]stearic acid to [14C]oleic acid; assay type: functional, organism-based
# [19] = Drug uptake in C57/BL6 mouse skin at 30 mg/kg, po after 2 hrs; assay type: ADME, organism-based, Zone of skin; design: dose 30 mg/kg, route oral; settings: read-out: Drug uptake
# [20] = biological target: T3, ATP-binding cassette sub-family C member 2 (Homo sapiens, UniProt Q92887); experiment: Binding affinity to MRP2 expressed in MDCK2 cells coexpressing OATP1B1; assay type: cell-based; settings: dog, mdck-ii
# T3 sequence (Q92887 whole entry): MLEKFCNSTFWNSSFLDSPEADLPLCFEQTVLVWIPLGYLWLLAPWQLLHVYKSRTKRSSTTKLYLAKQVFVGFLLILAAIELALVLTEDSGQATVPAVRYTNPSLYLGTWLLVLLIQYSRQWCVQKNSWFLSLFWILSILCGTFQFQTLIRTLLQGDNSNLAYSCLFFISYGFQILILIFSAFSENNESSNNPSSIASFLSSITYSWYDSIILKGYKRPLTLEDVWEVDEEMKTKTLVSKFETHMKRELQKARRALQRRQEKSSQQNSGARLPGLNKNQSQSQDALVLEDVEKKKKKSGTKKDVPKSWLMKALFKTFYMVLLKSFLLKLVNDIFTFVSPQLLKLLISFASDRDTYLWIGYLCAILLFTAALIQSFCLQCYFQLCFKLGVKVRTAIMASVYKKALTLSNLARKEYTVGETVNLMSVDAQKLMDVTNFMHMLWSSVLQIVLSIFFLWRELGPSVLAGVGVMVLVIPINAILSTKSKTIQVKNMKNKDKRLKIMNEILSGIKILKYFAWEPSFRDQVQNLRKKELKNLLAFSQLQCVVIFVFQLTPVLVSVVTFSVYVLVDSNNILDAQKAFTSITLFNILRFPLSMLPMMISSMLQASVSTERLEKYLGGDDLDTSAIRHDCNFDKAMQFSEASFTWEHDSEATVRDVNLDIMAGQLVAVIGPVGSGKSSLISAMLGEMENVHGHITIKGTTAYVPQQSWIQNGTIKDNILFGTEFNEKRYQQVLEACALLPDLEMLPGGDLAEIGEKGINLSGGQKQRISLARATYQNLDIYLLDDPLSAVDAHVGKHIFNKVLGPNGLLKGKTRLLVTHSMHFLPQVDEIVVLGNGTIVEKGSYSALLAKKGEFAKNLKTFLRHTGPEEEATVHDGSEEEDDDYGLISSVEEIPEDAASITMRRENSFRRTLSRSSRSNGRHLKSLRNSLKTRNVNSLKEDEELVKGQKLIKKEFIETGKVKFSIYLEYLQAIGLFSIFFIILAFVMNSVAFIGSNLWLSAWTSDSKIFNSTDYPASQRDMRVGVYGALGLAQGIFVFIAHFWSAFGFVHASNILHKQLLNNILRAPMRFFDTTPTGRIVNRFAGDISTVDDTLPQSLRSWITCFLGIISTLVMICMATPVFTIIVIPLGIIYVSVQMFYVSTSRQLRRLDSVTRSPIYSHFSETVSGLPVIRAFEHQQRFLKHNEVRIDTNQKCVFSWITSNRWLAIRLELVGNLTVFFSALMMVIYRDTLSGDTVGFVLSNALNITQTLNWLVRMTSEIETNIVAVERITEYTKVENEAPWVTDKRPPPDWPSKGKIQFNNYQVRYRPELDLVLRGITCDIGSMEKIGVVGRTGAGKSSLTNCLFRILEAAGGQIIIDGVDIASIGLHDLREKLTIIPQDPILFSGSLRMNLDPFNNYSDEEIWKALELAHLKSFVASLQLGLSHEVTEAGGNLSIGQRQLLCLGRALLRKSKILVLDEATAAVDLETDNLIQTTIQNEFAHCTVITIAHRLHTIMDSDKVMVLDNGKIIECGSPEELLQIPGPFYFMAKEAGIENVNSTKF
# [21] = Plasma clearance in Sprague-Dawley rat at 10 mg/kg, po and 2 mg/kg, iv; assay type: ADME, organism-based
# [22] = Volume of distribution at steady state in Sprague-Dawley rat at 10 mg/kg, po and 2 mg/kg, iv; assay type: ADME, organism-based; settings: in vivo, read-out: Vdss
# [23] = Drug uptake in C57/BL6 mouse left median liver lobe at 30 mg/kg, po after 24 hrs; assay type: ADME, organism-based; design: dose 30 mg/kg, route oral; settings: read-out: Drug uptake
# [24] = Oral bioavailability in C57/BL6 mouse plasma at 10 mg/kg; assay type: ADME, organism-based
# [25] = Plasma concentration in high sucrose/fat free diet fed C57/BL6 mouse at 100 mg/kg, po after 3 hrs; assay type: ADME, organism-based; design: dose 100 mg/kg, route oral
# [26] = Drug uptake in C57/BL6 mouse harderian glands at 30 mg/kg, po after 24 hrs; assay type: ADME, organism-based, Harderian gland; design: dose 30 mg/kg, route oral; settings: read-out: Drug uptake
# [27] = biological target: T3, ATP-binding cassette sub-family C member 2; experiment: Binding affinity to MRP2 expressed in MDCK2 cells coexpressing OATP1B3; assay type: cell-based; settings: dog, mdck-ii
# HepG2 = experiment: Selectivity ratio of IC50 for human SCD1 expressed in human HepG2 cells to IC50 for rat SCD1 in Sprague-Dawley rat hepatocytes; assay type: cell-based
# Mus musculus [28] = experiment: Acute antidiabetic activity in high fat diet fed C57/BL6 mouse eDIO model assessed as increase in glucose clearance at 100 mg/kg, po administered 1 hr prior to glucose challenge by oGTT assay; assay type: functional
# [29] = Half life in C57/BL6 mouse at 10 mg/kg, po and 2 mg/kg, iv; assay type: ADME, organism-based; settings: in vivo
# [30] = Plasma concentration in C57/BL6 mouse at 30 mg/kg, po after 2 hrs; assay type: ADME, organism-based; design: dose 30 mg/kg, route oral
# [31] = Drug uptake in C57/BL6 mouse left epididymal fat at 30 mg/kg, po after 6 hrs; assay type: ADME, organism-based, Epididymal fat pad; design: dose 30 mg/kg, route oral; settings: male, read-out: Drug uptake
smiles,measurement,setting,value
O=C(O)c1cncc(-c2ccc(N3CCC(Oc4cc(F)ccc4Br)CC3)nn2)c1,clearance,[1],81 mL/min/kg
same,concentration at 3 h,[2],53000 nM
same,concentration at 6 h,[3],333 nM
same,concentration at 2 h,[4],6140 nM
same,AUC,[5],0.3 µM·h
same,concentration at 24 h,[6],12 nM
same,Ratio,Nucleic Acid,< 2
same,IC50,[7],0.004 µM
same,bioavailability,[8],43%
same,concentration at 24 h,[9],32 nM
same,concentration at 3 h,[10],2970 nM
same,concentration at 24 h,[11],5 nM
same,concentration at 24 h,[12],5 nM
same,concentration at 6 h,[13],55 nM
same,concentration at 24 h,[14],45 nM
same,Activity,Mus musculus [15],59%
same,IC50,Stearoyl-CoA desaturase,6.03 µM
same,AUC,[16],17.8 µM·h
same,concentration at 3 h,[17],2240 nM
same,inhibition,Mus musculus [18],Dose-dependent effect
same,concentration at 2 h,[19],170 nM
same,Activity,[20],Active
same,clearance,[21],8.6 mL/min/kg
same,Vd,[22],0.41 L/kg
same,concentration at 24 h,[23],32 nM
same,bioavailability,[24],8%
same,concentration at 3 h,[25],4390 nM
same,concentration at 24 h,[26],5 nM
same,Activity,[27],Active
same,Ratio IC50,HepG2,34
same,Activity,Mus musculus [28],90%
same,half-life,[29],24 min
same,concentration at 2 h,[30],1210 nM
same,concentration at 6 h,[31],111 nM

# Reference: ChEMBL document CHEMBL1949499, “Nicotinic acids: liver-targeted SCD inhibitors with preclinical anti-diabetic efficacy” (Bioorg Med Chem Lett, 2011)
